target: T1, Nav1.5 (wild type; α-subunit co-transfected with the β1 subunit) (Homo sapiens, UniProt Q14524); assay: whole-cell patch clamp, peak INa block at -20 mV, Hill fit; format: cell-based
T1 construct: gene SCN5A; full-length alpha subunit transiently co-transfected with beta1 subunit and eGFP (separate cDNAs) in HEK293; with Sodium channel regulatory subunit beta-1
Source text: whole-cell patch clamp, peak INa block at -20 mV, Hill fit on Nav1.5 (wild type; α-subunit co-transfected with the β1 subunit)

T1 sequence (Q14524 whole entry): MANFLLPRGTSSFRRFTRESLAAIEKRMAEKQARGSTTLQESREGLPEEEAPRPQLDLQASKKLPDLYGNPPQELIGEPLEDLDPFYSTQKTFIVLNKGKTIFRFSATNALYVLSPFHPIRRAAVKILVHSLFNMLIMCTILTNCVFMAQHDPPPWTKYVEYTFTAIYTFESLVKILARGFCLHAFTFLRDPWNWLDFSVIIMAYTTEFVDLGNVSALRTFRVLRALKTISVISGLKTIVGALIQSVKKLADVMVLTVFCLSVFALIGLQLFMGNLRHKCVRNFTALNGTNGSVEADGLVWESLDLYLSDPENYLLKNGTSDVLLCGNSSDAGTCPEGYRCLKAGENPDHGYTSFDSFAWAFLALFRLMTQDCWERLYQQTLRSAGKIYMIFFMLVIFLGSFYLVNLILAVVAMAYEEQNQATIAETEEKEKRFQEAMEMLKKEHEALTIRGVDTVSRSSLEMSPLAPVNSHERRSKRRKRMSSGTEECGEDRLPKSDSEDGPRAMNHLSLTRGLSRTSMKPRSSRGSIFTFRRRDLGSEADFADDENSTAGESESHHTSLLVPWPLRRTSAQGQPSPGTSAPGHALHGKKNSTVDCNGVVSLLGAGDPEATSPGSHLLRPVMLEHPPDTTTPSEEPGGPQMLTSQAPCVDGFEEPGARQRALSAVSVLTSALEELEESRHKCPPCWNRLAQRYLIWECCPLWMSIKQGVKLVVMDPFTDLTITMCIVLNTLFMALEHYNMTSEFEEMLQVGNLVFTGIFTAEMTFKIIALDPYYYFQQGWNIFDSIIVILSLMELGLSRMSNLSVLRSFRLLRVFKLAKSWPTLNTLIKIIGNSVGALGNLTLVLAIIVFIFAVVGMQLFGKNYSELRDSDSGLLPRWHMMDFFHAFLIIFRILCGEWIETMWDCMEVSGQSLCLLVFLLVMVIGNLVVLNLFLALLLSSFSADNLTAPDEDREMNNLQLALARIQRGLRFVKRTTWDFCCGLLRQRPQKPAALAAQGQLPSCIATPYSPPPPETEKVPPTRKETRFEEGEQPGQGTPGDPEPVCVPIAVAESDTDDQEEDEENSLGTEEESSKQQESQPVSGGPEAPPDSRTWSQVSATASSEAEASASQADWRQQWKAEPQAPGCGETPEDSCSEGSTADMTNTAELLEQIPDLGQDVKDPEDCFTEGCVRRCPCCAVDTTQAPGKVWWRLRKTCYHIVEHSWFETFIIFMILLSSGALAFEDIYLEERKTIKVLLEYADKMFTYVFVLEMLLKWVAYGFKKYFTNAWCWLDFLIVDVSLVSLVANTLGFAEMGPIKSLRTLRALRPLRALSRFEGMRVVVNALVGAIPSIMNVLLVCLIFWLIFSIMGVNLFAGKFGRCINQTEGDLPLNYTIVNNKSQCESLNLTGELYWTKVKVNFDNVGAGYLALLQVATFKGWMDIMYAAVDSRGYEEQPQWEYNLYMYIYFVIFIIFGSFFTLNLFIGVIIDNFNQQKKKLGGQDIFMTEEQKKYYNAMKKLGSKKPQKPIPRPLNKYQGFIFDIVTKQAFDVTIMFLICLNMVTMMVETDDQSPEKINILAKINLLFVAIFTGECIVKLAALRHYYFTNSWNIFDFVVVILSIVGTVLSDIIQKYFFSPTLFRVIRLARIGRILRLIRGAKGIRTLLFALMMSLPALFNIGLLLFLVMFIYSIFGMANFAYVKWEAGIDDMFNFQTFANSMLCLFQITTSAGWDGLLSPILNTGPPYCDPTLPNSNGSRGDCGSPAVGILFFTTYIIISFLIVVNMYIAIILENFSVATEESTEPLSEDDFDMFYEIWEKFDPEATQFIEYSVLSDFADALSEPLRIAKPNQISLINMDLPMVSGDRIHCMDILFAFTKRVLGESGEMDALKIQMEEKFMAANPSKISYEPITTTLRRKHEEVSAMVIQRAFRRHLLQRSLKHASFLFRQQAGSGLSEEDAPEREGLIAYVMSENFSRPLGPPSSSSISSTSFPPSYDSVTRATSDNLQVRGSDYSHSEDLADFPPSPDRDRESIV
T1 sequence (Q07699 19-218 partner): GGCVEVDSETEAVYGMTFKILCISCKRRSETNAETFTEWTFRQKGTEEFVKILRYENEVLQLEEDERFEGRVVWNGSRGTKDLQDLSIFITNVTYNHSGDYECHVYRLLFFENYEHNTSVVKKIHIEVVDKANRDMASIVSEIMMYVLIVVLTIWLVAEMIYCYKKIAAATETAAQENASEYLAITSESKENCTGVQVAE

| Compound | IC50 [µM] |
| --- | --- |
| O=C(NCc1ccco1)c1ccc2[nH]c(=O)c(=O)[nH]c2c1 [AR-051, N-(2-furylmethyl)-2,3-dioxo-quinoxaline-6-carboxamide] | 7.61 |
| CN(C)[C@@H](CNC(=O)c1ccc2[nH]c(=O)c(=O)[nH]c2c1)c1ccco1 [AR-189, N-[(2S)-2-(dimethylamino)-2-(2-furyl)ethyl]-2,3-dioxo-quinoxaline-6-carboxamide] | 12.6 |
| C=CCNS(=O)(=O)c1ccc2[nH]c(=O)[nH]c2c1 [AR-674, N-allyl-2-oxo-benzimidazole-5-sulfonamide] | 6.45 |
| COc1cccc(NS(=O)(=O)c2ccc3[nH]c(=O)[nH]c3c2)c1 [AR-802, N-(3-methoxyphenyl)-2-oxo-benzimidazole-5-sulfonamide] | 34.6 |
| CCc1ccccc1NS(=O)(=O)c1ccc2[nH]c(=O)[nH]c2c1 [AR-807, N-(2-ethylphenyl)-2-oxo-benzimidazole-5-sulfonamide] | 9.86 |
